Data on one compound can be found in US11358931B2, “Selective androgen receptor modulators (SARMs) and uses thereof” (priority 2007, dated 2022).

What is called IC50 is the concentration needed to halve the response being measured. Lower therefore signals inhibition by little substance.

Molecules are shown by their SMILES.

For one assay, the target named is T1, hGR (Homo sapiens, UniProt P04150).
T1 construct: expressed in transfected cells
T1 sequence (P04150 1-777): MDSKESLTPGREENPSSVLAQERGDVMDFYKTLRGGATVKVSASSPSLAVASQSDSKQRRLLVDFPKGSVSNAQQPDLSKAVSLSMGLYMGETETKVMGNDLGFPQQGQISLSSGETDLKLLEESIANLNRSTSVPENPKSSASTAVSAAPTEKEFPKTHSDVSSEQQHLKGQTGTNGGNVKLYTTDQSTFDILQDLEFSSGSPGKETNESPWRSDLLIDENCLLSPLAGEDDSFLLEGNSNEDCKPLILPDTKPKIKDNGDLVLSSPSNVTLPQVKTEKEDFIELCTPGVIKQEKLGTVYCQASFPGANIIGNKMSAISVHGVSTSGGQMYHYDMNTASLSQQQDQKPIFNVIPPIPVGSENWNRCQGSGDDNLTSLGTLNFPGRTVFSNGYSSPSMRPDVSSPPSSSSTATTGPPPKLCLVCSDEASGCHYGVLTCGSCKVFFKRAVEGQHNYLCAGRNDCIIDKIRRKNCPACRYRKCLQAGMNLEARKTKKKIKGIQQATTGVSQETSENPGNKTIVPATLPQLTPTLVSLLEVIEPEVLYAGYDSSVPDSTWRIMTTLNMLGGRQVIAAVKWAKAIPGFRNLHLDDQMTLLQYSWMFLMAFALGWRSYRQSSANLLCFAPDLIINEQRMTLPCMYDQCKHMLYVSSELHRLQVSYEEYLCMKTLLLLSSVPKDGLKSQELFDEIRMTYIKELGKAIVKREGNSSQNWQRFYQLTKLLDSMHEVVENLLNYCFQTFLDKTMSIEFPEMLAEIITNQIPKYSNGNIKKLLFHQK
Kind of assay: Co-transfection assay, other nuclear receptors: hGR. It is filed as cell-based. The source says: (§1) An exemplary co-transfection assay is the luciferase reporter assay (Evans, Science 240: 889-895 (1988), Berger et al., J Steroid Biochem Mol Biol 41: 733-738 (1992)) can be used to establish the ability of a compound of formulae I, II or III to activate (agonist activity) or repress (antagonist activity) the ability of the human androgen receptor (hAR) to induce gene expression. A human cell line containing endogenously expressed hAR (e.g., MDA-MB-453 cells, derived from a human mammary carcinoma, American Tissue Type Culture Collection [ATCC] HTB 131) can be transfected with an androgen responsive luciferase reporter plasmid to measure the level of cross-reactivity of the compound on other nuclear receptors (such as the glucocorticoid receptor (GR), estrogen receptor (ER), mineralocorticoid receptor (MR), progesterone receptor (PR), retinoid receptor (RAR), retinoid X receptor (RXR), peroxisome proliferator activating receptors alpha (PPARα), gamma (PPARγ) and delta (PPARδ), liver X receptor (LXR), farnesyl X receptor (FXR) and the pregnane X receptor (PXR)). In the assay, luciferase reporter plasmids containing the cDNA for firefly luciferase (LUC) under the control of a conditional promoter containing hormone response elements recognized by the appropriate nuclear receptor are co-transfected into cells with the nuclear receptor expression plasmid. […]

For another assay, the target named is T2, hPR-B (Homo sapiens, UniProt P06401).
T2 construct: expressed in transfected cells
T2 sequence (P06401 1-933): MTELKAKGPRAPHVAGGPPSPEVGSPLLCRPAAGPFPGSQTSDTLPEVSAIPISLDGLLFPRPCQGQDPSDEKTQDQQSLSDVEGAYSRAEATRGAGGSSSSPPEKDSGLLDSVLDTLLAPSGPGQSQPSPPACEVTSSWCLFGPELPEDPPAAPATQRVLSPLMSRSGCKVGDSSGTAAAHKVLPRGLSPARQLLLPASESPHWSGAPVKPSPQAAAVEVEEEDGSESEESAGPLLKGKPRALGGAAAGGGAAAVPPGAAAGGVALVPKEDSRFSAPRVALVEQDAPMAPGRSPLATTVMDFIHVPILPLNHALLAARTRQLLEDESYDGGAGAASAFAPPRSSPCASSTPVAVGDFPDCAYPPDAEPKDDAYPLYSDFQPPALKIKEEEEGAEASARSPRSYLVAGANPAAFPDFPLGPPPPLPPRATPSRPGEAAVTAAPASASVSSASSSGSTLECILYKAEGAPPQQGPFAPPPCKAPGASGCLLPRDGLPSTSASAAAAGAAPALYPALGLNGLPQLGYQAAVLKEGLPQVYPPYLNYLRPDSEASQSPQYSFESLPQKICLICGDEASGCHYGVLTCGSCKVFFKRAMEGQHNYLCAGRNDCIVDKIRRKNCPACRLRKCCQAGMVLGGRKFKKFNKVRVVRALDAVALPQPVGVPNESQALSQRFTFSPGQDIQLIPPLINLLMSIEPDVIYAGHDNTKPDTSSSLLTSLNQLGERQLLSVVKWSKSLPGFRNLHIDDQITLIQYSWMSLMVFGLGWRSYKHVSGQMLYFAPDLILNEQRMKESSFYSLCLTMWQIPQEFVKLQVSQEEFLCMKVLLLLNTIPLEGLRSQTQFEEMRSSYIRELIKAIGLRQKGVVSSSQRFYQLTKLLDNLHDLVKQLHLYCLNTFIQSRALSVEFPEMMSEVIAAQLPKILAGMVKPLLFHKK
As to the kind of experiment: Co-transfection assay, other nuclear receptors: hPR-B. It is filed as cell-based.
Text: as §1

`N#Cc1ccc(N2CCC[C@@H]2[C@@H](O)C(F)(F)F)cc1C(F)(F)F` [Compound 102, R,R-4-(2-(1-Hydroxyl-2,2,2-trifluoroethyl)-pyrrolidinyl)-2-trifluoromethyl-benzonitrile]: the IC50 was 1600 nM against hGR and 280 nM on hPR-B. For the same compound, the “antagonism of dexamethasone-induced activation of hGR (efficacy)” value at hGR (dexamethasone-induced activation) is given as 60%. The “antagonism of progesterone-induced activation of hPR-B (efficacy)” value at hPR-B (progesterone-induced activation) stood at 74%.
